Assay results as given in patent publication US20260241049A1, “Radiopharmaceutical Compositions Targeting Glypican-3 and Uses Thereof” (RayzeBio, Inc., priority 2023, published 2026).
Starred links: 1 amine or outer side, 2 acyl side, 3 side chain; linkers in the order of their positions; H or OH if unused. Positions of bridges follow the written chain, without caps; N, C: chain ends. Non-standard residues stand in square brackets, D forms with d. Residues, ends and D or L forms follow the SMILES beside them. Groups on a side chain read outwards from the residue. Primed or numbered codes have the meaning given here. *: point of attachment. MeHseMe(3) = N-methyl-O-methyl-homoserine, 4-methoxy-2-(methylamino)butanoic acid, COCC[C@@H](C(=O)[*:2])N(C)[*:1]; DOTA‑Lu″ = DOTA chelate of lutetium (175Lu), attached as an amide to the side-chain amine; Phe(4-(1-Me-pyrazol-4-yl)) = Cn1cc(-c2ccc(C[C@H](N)C(=O)O)cc2)cn1; NMeAla(isoquinolin-7-yl) = CN[C@@H](Cc1ccc2ccncc2c1)C(=O)O; DOTA = O=C(O)CN1CCN(CC(=O)O)CCN(CC(=O)*)CCN(CC(=O)O)CC1; CH2CON(CH2CH2)2NCH2COOH = O=C(O)CN1CCN(C(=O)C*)CC1; Phe(4-CH2COOH) = N[C@@H](Cc1ccc(CC(=O)O)cc1)C(=O)O; 3Pal(6-Ph) = N[C@@H](Cc1ccc(-c2ccccc2)nc1)C(=O)O; Phe(4-COOH) = N[C@@H](Cc1ccc(C(=O)O)cc1)C(=O)O; Piperazinyl(4-CH2COOH) = O=C(O)CN1CCN(*)CC1; NMe2Nal = CN[C@@H](Cc1ccc2ccccc2c1)C(=O)O; AEF = NCCOc1ccc(C[C@H](N)C(=O)O)cc1; NMeI = CC[C@H](C)[C@H](NC)C(=O)O; NMeQ = CN[C@@H](CCC(N)=O)C(=O)O; NMehSer = CN[C@@H](CCO)C(=O)O; NMeK = CN[C@@H](CCCCN)C(=O)O; NMeC = CN[C@@H](CS)C(=O)O; Carboxymethyl = O=C(O)C*; NMeA = CN[C@@H](C)C(=O)O; CO = O=C([*:1])[*:2]

Key:
Human Glypican3-Fc = Human Glypican3-Fc (Homo sapiens, UniProt P51654); assay: SPR binding to Glypican-3, Method B-2 (Glypican3-Fc captured by anti-human IgG (Fc) antibody on CM3 chip); settings: SPR method B-2
Protocol: (§1) A CM3 sensor chip (Cytiva) was inserted into a Biacore T200 (Cytiva), primed three times with a running buffer: HBS-P-+, pH 7.4 (Cytiva), and equilibrated at a flow rate of 30 μL/min. Using the Anti-Fc Capture Kit (Cytiva), 50 LL each of 60 mM EDC solution (Cytiva) and 650 mM NHS solution (Cytiva) were mixed, and then reacted at a flow rate of 10 μL/min for 420 seconds, 150 μL of […] Anti-human IgG (Fc) Antibody solution was prepared by diluting with 10 mM acetic acid solution (pH 5.0), reacted at a flow rate of 10 μL/min for 420 seconds, and immobilized on a CM3 sensor chip. After immobilization, 1.0 M ethanolamine aqueous solution (Cytiva) was allowed to react for 420 seconds at a flow rate of 10 μL/min for capping. Human Glypican3-Fc (ACRO Biosystems, GP3-H5258) was allowed to react for 60 seconds at a flow rate of 10 μL/min. After capturing human Glypican3-Fc, a peptide solution prepared to 10 mM in DMSO solution was diluted with a running buffer to a final concentration of 10 μM. After that, 5 serial dilution series (100 nM, 50 nM, 25 nM, 10 nM, 5 nM) of peptide solutions were prepared. Using the above samples, peptide kinetics for Glypican3 was obtained by SPR measurement. Kinetics evaluation of Glypican3 was performed by SPR measurements at a flow rate of 10 μL/min. setting the association time to 120 seconds and the disassociation time to 600 seconds.
The obtained data by Method B-1, Method B-2, Method B-3 and Method B-4 were analyzed by follow. Single Cycle Kinetics was used as the kinetics evaluation model, and curve fitting was performed using Biacore T200 Evaluation Software Version 3.0 (Cytiva). The obtained sensorgram was subjected to curve fitting by the method of least squares and obtained KD values of the macrocyclic peptides in this disclosure for Glypican 3 protein are shown in Table 18.

[1] = target: T1, Human Glypican3-Fc (ACRO Biosystems, GP3-H5258) (human, UniProt P51654 25-559); assay: SPR (Biacore T200), Method B-2: human Glypican3-Fc captured by anti-human Fc on CM3 chip, peptide as analyte
T1 construct: Bought fusion protein, captured in Methods B-2, B-3 and B-4; Catalogue number is printed only in Method B-2; not shown: Fc part of the bought fusion
Protocol: as §1, with “After that, 5 serial dilution series (100 nM, 50 nM, 25 nM, 10 nM, 5 nM) of peptide solutions were prepared.” left out
The obtained data by Method B-1, Method B-2, Method B-3 and Method B-4 were analyzed by follow. Single Cycle Kinetics was used as the kinetics evaluation model, and curve fitting was performed using Biacore T200 Evaluation Software Version 3.0 (Cytiva).

Kd (Human Glypican3-Fc) | Kd [1] | Molecule
1.5 nM |  | CC[C@H](C)[C@@H]1NC(=O)[C@H](Cc2ccc(C(=O)O)cc2)NC(=O)[C@H](CCC(N)=O)N(C)C(=O)[C@H](CC(=O)O)NC(=O)[C@H](CCC(N)=O)N(C)C(=O)[C@H](C)N(C)C(=O)CSC[C@@H](C(N)=O)N(C)C(=O)[C@H](Cc2ccc(-c3ccccc3)nc2)NC(=O)CNC(=O)[C@H](Cc2ccc3ccccc3c2)N(C)C(=O)[C@H](Cc2ccc(C(=O)O)cc2)NC(=O)[C@H]([C@@H](C)CC)NC1=O [Conjugate 2-23] ({CH2CO}-[NMeA][NMeQ]D[NMeQ][Phe(4-COOH)]II[Phe(4-COOH)][NMe2Nal]G[3Pal(6-Ph)][NMeC]-NH2; thioether N-12)
1 nM |  | CC[C@H](C)[C@@H]1NC(=O)[C@H]([C@@H](C)OC)NC(=O)[C@H](Cc2ccc(C(=O)O)cc2)NC(=O)[C@H](CCC(N)=O)N(C)C(=O)[C@H](CC(=O)O)NC(=O)[C@H](CCOC)N(C)C(=O)[C@H](C)N(C)C(=O)CSC[C@@H](C(N)=O)N(C)C(=O)[C@H](Cc2ccc(-c3ccccc3)nc2)NC(=O)CNC(=O)[C@H](Cc2ccc3ccccc3c2)N(C)C(=O)[C@H](Cc2ccc(OCCNC(=O)CN3CCN(CC(=O)O)CCN(CC(=O)O)CCN(CC(=O)O)CC3)cc2)NC1=O [Lu-C-44] ({CH2CO}-[NMeA][NMehSer](Me)D[NMeQ][Phe(4-COOH)]T(Me)I[AEF](DOTA)[NMe2Nal]G[3Pal(6-Ph)][NMeC]-NH2; thioether N-12)
0.8 nM |  | CC[C@H](C)[C@@H]1NC(=O)[C@H]([C@@H](C)OC)NC(=O)[C@H](Cc2ccc(C(=O)O)cc2)NC(=O)[C@H](CCC(N)=O)N(C)C(=O)[C@H](CC(=O)O)NC(=O)[C@H](CCOC)N(C)C(=O)[C@H](CCC(N)=O)N(C)C(=O)CSC[C@@H](C(N)=O)N(C)C(=O)[C@H](Cc2ccc(-c3ccccc3)nc2)NC(=O)CNC(=O)[C@H](Cc2ccc3ccccc3c2)N(C)C(=O)[C@H](Cc2ccc(OCC(=O)N3CCN(CC(=O)O)CC3)cc2)NC1=O [Conjugate 2-22] ({CH2CO}-[NMeQ][NMehSer](Me)D[NMeQ][Phe(4-COOH)]T(Me)IY(CH2CON(CH2CH2)2NCH2COOH)[NMe2Nal]G[3Pal(6-Ph)][NMeC]-NH2; thioether N-12)
0.7 nM |  | CC[C@H](C)[C@@H]1NC(=O)[C@H]([C@@H](C)OC)NC(=O)[C@H](Cc2ccc(C(=O)O)cc2)NC(=O)[C@H](CCC(N)=O)N(C)C(=O)[C@H](CC(=O)O)NC(=O)[C@H]([C@@H](C)CC)N(C)C(=O)[C@H](CCCCNC(=O)CN2CCN(CC(=O)O)CCN(CC(=O)O)CCN(CC(=O)O)CC2)N(C)C(=O)CSC[C@@H](C(N)=O)N(C)C(=O)[C@H](Cc2ccc(-c3ccccc3)nc2)NC(=O)CNC(=O)[C@H](Cc2ccc3ccncc3c2)N(C)C(=O)[C@H](Cc2ccc(OCC(=O)O)cc2)NC1=O [Lu-C-30] ({CH2CO}-[NMeK](DOTA)[NMeI]D[NMeQ][Phe(4-COOH)]T(Me)IY(Carboxymethyl)[NMeAla(isoquinolin-7-yl)]G[3Pal(6-Ph)][NMeC]-NH2; thioether N-12)
0.8 nM |  | CC[C@H](C)[C@@H]1NC(=O)[C@H](Cc2ccc(C(=O)O)cc2)NC(=O)[C@H](CCC(N)=O)N(C)C(=O)[C@H](CC(=O)O)NC(=O)[C@H]([C@@H](C)CC)N(C)C(=O)[C@H](CCCCNC(=O)[C@@H](Cc2ccccc2)NC(=O)CN2CCN(CC(=O)O)CCN(CC(=O)O)CCN(CC(=O)O)CC2)N(C)C(=O)CSC[C@@H](C(N)=O)N(C)C(=O)[C@H](Cc2ccc(-c3ccccc3)nc2)NC(=O)CNC(=O)[C@H](Cc2ccc3ccncc3c2)N(C)C(=O)[C@H](Cc2ccc(OCC(=O)O)cc2)NC(=O)[C@H]([C@@H](C)CC)NC1=O [Lu-C-41] ({CH2CO}-[NMeK]([dF-DOTA])[NMeI]D[NMeQ][Phe(4-COOH)]IIY(Carboxymethyl)[NMeAla(isoquinolin-7-yl)]G[3Pal(6-Ph)][NMeC]-NH2; thioether N-12)
1.04 nM |  | CC[C@H](C)[C@@H]1NC(=O)[C@H](Cc2ccc(C(=O)O)cc2)NC(=O)[C@H](CCC(N)=O)N(C)C(=O)[C@H](CC(=O)O)NC(=O)[C@H](CCOC)N(C)C(=O)[C@H](CCCCNC(=O)CN2CCN(CC(=O)O)CCN(CC(=O)O)CCN(CC(=O)O)CC2)N(C)C(=O)CSC[C@@H](C(N)=O)N(C)C(=O)[C@H](Cc2ccc(-c3ccccc3)nc2)NC(=O)CNC(=O)[C@H](Cc2ccc3ccccc3c2)N(C)C(=O)[C@H](Cc2ccc(CC(=O)O)cc2)NC(=O)[C@H]([C@@H](C)CC)NC1=O [Lu-C-21] ({CH2CO}-[NMeK](DOTA)[NMehSer](Me)D[NMeQ][Phe(4-COOH)]II[Phe(4-CH2COOH)][NMe2Nal]G[3Pal(6-Ph)][NMeC]-NH2; thioether N-12)
1.8 nM |  | CC[C@H](C)[C@@H]1NC(=O)[C@H](Cc2ccc(C(=O)O)cc2)NC(=O)[C@H](CCC(N)=O)N(C)C(=O)[C@H](CC(=O)O)NC(=O)[C@H](CCC(N)=O)N(C)C(=O)[C@H](CCC(N)=O)N(C)C(=O)CSC[C@@H](C(N)=O)N(C)C(=O)[C@H](Cc2ccc(-c3cnn(C)c3)cc2)NC(=O)CNC(=O)[C@H](Cc2ccc3ccccc3c2)N(C)C(=O)[C@H](Cc2ccc(OCCNC(=O)CN3CCN(CC(=O)O)CCN(CC(=O)O)CCN(CC(=O)O)CC3)cc2)NC(=O)[C@H]([C@@H](C)CC)NC1=O [Lu-C-28] ({CH2CO}-[NMeQ][NMeQ]D[NMeQ][Phe(4-COOH)]II[AEF](DOTA)[NMe2Nal]G[Phe(4-(1-Me-pyrazol-4-yl))][NMeC]-NH2; thioether N-12)
0.5 nM |  | CC[C@H](C)[C@@H]1NC(=O)[C@H]([C@@H](C)OC)NC(=O)[C@H](Cc2ccc(C(=O)O)cc2)NC(=O)[C@H](CCC(N)=O)N(C)C(=O)[C@H](CC(=O)O)NC(=O)[C@H](CCOC)N(C)C(=O)[C@H](CCC(N)=O)N(C)C(=O)CSC[C@@H](C(N)=O)N(C)C(=O)[C@H](Cc2ccc(-c3ccccc3)nc2)NC(=O)CNC(=O)[C@H](Cc2ccc3ccccc3c2)N(C)C(=O)[C@H](Cc2ccc(OCCNC(=O)N3CCN(CC(=O)O)CC3)cc2)NC1=O [Conjugate 2-19] ({CH2CO}-[NMeQ][NMehSer](Me)D[NMeQ][Phe(4-COOH)]T(Me)I[AEF]([CO-Piperazinyl(4-CH2COOH)])[NMe2Nal]G[3Pal(6-Ph)][NMeC]-NH2; thioether N-12)
 | 1.99 nM | {CH2CO}-[NMeK](DOTA‑Lu″)[MeHseMe(3)]D[NMeQ][Phe(4-COOH)]II[Phe(4-CH2COOH)][NMe2Nal]G[Phe(4-(1-Me-pyrazol-4-yl))][NMeC]-NH2 (thioether N-12) [Lu-C-22]
 | 1.5 nM | {CH2CO}-[NMeA][NMeQ]D[NMeQ][Phe(4-COOH)]II[Phe(4-COOH)][NMe2Nal]G[3Pal(6-Ph)][NMeC]-NH2 (thioether N-12; SMILES CC[C@H](C)[C@@H]1NC(=O)[C@H](Cc2ccc(C(=O)O)cc2)NC(=O)[C@H](CCC(N)=O)N(C)C(=O)[C@H](CC(=O)O)NC(=O)[C@H](CCC(N)=O)N(C)C(=O)[C@H](C)N(C)C(=O)CSC[C@@H](C(N)=O)N(C)C(=O)[C@H](Cc2ccc(-c3ccccc3)nc2)NC(=O)CNC(=O)[C@H](Cc2ccc3ccccc3c2)N(C)C(=O)[C@H](Cc2ccc(C(=O)O)cc2)NC(=O)[C@H]([C@@H](C)CC)NC1=O) [Macrocyclic peptide of Example 2-23 (SEQ ID No. 43)]
 | 2.52 nM | {CH2CO}-[NMeQ][NMeQ]D[NMeK](DOTA‑Lu″)[Phe(4-COOH)]II[Phe(4-CH2COOH)][NMe2Nal]G[Phe(4-(1-Me-pyrazol-4-yl))][NMeC]-NH2 (thioether N-12) [Lu-C-26]
